Results on 28 compounds are retold here after ChEMBL document CHEMBL5329206 (Bioorg Med Chem, 2023).

Activity calls are given as the source filed them. No cut-off for these calls is given here. Where a SMILES comes first, the peptide text is derived from it.

For data set [1], the target named is Replicase polyprotein 1ab (Severe acute respiratory syndrome coronavirus 2) (UniProt P0DTD1). Briefly: Inhibition of SARS-CoV-2 MPro using protease substrate at 1 uM preincubated with enzyme for 10 mins followed by substrate addition and measured after 5 mins by FRET based assay. As to conditions: time 15.0 min.
In data set [2] the target is Replicase polyprotein 1ab (Severe acute respiratory syndrome coronavirus 2, UniProt P0DTD1). The data set is described as follows: Inhibition of SARS-CoV-2 MPro using protease substrate preincubated with enzyme for 10 mins followed by substrate addition and measured after 5 mins by FRET based assay.
The subject of data set [3] is SARS-CoV-2. The data set is described as follows: Antiviral activity against SARS-CoV-2 infected in African green monkey Vero E6 cells assessed as inhibition of viral infection preincubated for 1 hr followed by incubation in methylcellulose medium for 25 to 26 hrs by TrueBlue based EliSpot analysis. It counts as functional, organism-based. As to conditions: Severe acute respiratory syndrome coronavirus 2, Vero C1008.

Data set [4] in a line: Cytotoxicity against African green monkey Vero E6 cells assessed as cell growth inhibition measured after 48 hrs by CCK8 assay. Format: toxicity, cell-based, Vero C1008. As to conditions: chlorocebus sabaeus. Background: Tetrazolium assays rely on reduction of a dye to a coloured formazan, in cell work by metabolically active cells.
The target of data set [5] is Replicase polyprotein 1ab (Severe acute respiratory syndrome coronavirus 2) (UniProt P0DTD1). The data set is described as follows: Inhibition of SARS-CoV-2 MPro using protease substrate at 5 uM preincubated with enzyme for 10 mins followed by substrate addition and measured after 5 mins by FRET based assay. The conditions noted are these: time 15.0 min.
Data set [6] shares this target. Briefly: Covalent inhibition of SARS-Cov-2 MPro using protease substrate at 1 uM preincubated with enzyme for 5 to 80 mins followed by substrate addition and measured every 10s for 10 mins by FRET based assay. The conditions noted are these: time 15-90 min, TDE = time-dependent effect.
For data set [7] the target is unchanged. Briefly: Inhibition of SARS-CoV-2 MPro using protease substrate at 5 uM preincubated with enzyme for 10 mins followed by substrate addition and measured after 5 mins in presence of 4 mM DTT by FRET based assay. The conditions noted are these: time 15.0 min.
Data set [8] has as its system SARS-CoV-2. The data set is described as follows: Antiviral activity against SARS-CoV-2. It counts as functional, organism-based. As to conditions: Severe acute respiratory syndrome coronavirus 2.
The target in data set [9] is T1, Cathepsin K (Homo sapiens, UniProt P43235).
T1 sequence (P43235 whole entry): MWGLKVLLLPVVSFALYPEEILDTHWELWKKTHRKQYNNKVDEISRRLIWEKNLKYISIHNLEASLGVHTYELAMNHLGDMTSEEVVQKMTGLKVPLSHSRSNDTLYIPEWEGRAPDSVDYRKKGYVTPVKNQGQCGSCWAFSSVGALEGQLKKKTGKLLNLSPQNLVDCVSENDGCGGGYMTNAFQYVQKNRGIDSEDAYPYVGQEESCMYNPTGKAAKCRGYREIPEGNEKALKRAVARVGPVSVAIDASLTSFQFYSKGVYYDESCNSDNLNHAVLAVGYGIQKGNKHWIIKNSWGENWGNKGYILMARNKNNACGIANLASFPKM
Briefly: Inhibition of human Cathepsin K at 20 uM measured after 30 mins by fluorescence based microplate reader analysis relative to control. Format: toxicity. As to conditions: human Cathepsin K enzyme.

Data set [10] addresses Cathepsin B (Homo sapiens, UniProt P07858). The data set is described as follows: Inhibition of human Cathepsin B at 20 uM measured after 30 mins by fluorescence based microplate reader analysis relative to control. It counts as toxicity. The conditions noted are these: human Cathepsin B enzyme.
Data set [11] addresses T1, Cathepsin K. Briefly: Inhibition of human Cathepsin K measured after 30 mins by fluorescence based microplate reader analysis relative to control. It counts as toxicity.

For `O=c1c2ccccc2[se]n1C1CCNCC1`, the inhibition in data set [1] worked out at 57.5%.
Turning to `O=C(Nc1ccc2c(=O)n(-c3ccccc3)[se]c2c1)c1cccs1`, in [1], the inhibition was determined as 38.9%.
`CC(C)(C)OC(=O)N1CCC(n2[se]c3ccccc3c2=O)CC1` displayed an IC50 in [2] of 417 nM. In addition, the inhibition in data set [1] is 85.2%.
With `O=c1c2ccccc2[se]n1Cc1ccc2[nH]ccc2c1`, the inhibition in data set [1] was 32.6%.
For the compound `O=c1c2ccccc2[se]n1Cc1ccccc1`, 364 nM corresponded to half-maximal inhibition in [2] (IC50). Also, in data set [3], the half-maximal effective concentration (EC50) was 8010 nM. In data set [4], the 50% cytotoxic concentration (CC50) at 48 h is over 100000 nM. Also, in data set [1], the inhibition was found to be 95.5%.
`CN(C)S(=O)(=O)Nc1ccc(-n2[se]c3ccccc3c2=O)cc1` came in with a half-maximal inhibitory concentration (IC50) in data set [2] of 233 nM. For the same compound, in [3], the EC50 was over 9910 nM. Also, the inhibition entry in data set [5] was “Active”. The half-maximal cytotoxic concentration (CC50) at 48 h in data set [4] is 9910 nM. Besides, the inhibition in data set [1] was 91.8%; in data set [6], “Tde”. Also, the inhibition result in [7] was “inactive”.
Take `O=C(NC1CCCC1)C(=O)[C@H](C[C@@H]1CCNC1=O)NC(=O)[C@@H]1[C@H]2CCC[C@H]2CN1C(=O)[C@@H](NC(=O)C(F)(F)F)C1CCCCC1`: the 50% effective concentration (EC50) in data set [8] was 95 nM.
For `CC(C)(C)OC(=O)Nc1ccc(-n2[se]c3ccccc3c2=O)cc1`, the inhibition in data set [1] was determined as 32.1%.
In [2], `NS(=O)(=O)c1ccc(C(=O)N2CCC(n3[se]c4ccccc4c3=O)CC2)cc1` gave an IC50 of 550 nM. Besides, in data set [1], the inhibition worked out at 88.3%.
On to `CCOC(=O)c1ccc(-n2[se]c3ccccc3c2=O)cc1`, for which, in [9], the inhibition at 0.5 h, 20 µM was determined as 5%. Further, in data set [1], the inhibition was 68.4%.
For `Nc1ccc2c(=O)n(-c3ccccc3)[se]c2c1`, the IC50 in data set [2] amounted to 322 nM. The inhibition result in data set [5] was “Active”. Further, the inhibition in data set [1] was 87%. In data set [7], the inhibition entry is “inactive”.
`CC(C)(F)C[C@H](N[C@@H](c1ccc(-c2ccc(S(C)(=O)=O)cc2)cc1)C(F)(F)F)C(=O)NC1(C#N)CC1` [ODANACATIB]: the inhibition at 0.5 h, 20 µM in [9] was determined as 96%.
On to `CS(=O)(=O)Nc1ccc(C(=O)Nc2ccc(-n3[se]c4ccccc4c3=O)cc2)cc1`, for which the inhibition result in data set [1] was “inactive”.
With `CC(=O)N[C@@H](CC(C)C)C(=O)N[C@H](C(=O)N[C@H](C=O)CCCCN)C(C)C` (Ac-Leu-Val-Lys-aldehyde), the inhibition at 0.5 h, 20 µM in data set [10] was determined as 99%.
For the compound `Nc1ccc2[se]n(-c3ccccc3)c(=O)c2c1`, the inhibition in data set [1] came out at 21.8%.
Turning to `O=c1c2ccccc2[se]n1C1CCN(S(=O)(=O)c2cccnc2)CC1`, the IC50 is 268 nM in data set [2] and over 20000 nM in [11]. Besides, in data set [3], the half-maximal effective concentration (EC50) was over 13300 nM. Moreover, in data set [4], the 50% cytotoxic concentration (CC50) at 48 h was found to be 13300 nM. In addition, the inhibition in data set [1] was found to be 101%. Moreover, in [10], the inhibition at 0.5 h, 20 µM was determined as 4%.
For `O=c1c2ccccc2[se]n1C1CCN(S(=O)(=O)c2cccs2)CC1`, the inhibition in data set [1] amounted to 67.8%.
In the case of `O=c1c2cc([N+](=O)[O-])ccc2[se]n1-c1ccccc1`, in data set [1], the inhibition was 18.8%.
For the compound `O=c1c2ccccc2[se]n1Cc1cccnc1`, the IC50 in [2] worked out at 459 nM. Also, the inhibition in [1] amounted to 80.6%.
Take `O=c1c2ccccc2[se]n1Cc1ccc2ccccc2c1`: the inhibition in data set [1] was 34.6%.
For `O=c1c2ccccc2[se]n1C1CCN(S(=O)(=O)c2cccc(Cl)c2)CC1`, the inhibition in data set [1] is 24.7%.
The compound `O=C(Nc1ccc(-n2[se]c3ccccc3c2=O)cc1)C1CC1` returned a concentration for half-maximal inhibition (IC50) in [2] of 490 nM. Also, the inhibition in data set [1] is 95.5%.
For the compound `O=c1c2ccccc2[se]n1-c1ccccc1` [EBSELEN], the inhibition at 0.5 h, 20 µM amounted to 38% in [9] and 62% in data set [10]. Further, the 50% effective concentration (EC50) in [3] amounted to 3780 nM. Further, the inhibition entry in data set [5] is “Active”. Besides, the cytotoxic concentration (CC50) at 48 h in data set [4] worked out at 70500 nM. Moreover, the inhibition in data set [1] was 88.3%; in [6] it was “Tde”. In addition, the inhibition entry in [7] was “inactive”. In [11], this compound gave an IC50 of over 20000 nM.
For the compound `O=c1c2ccccc2[se]n1-c1ccc(NS(=O)(=O)C2CC2)cc1`, in [2], the half-maximal inhibitory concentration (IC50) turned out to be 528 nM. The inhibition result in data set [5] is “Active”. Besides, in data set [1], the inhibition was 89.7%. Further, in [7], the inhibition entry is “inactive”.
In data set [2], `O=c1c2ccccc2[se]n1C1CCN(S(=O)(=O)C2CC2)CC1` yielded an IC50 of 356 nM. In addition, the EC50 in data set [3] was over 20000 nM. Further, in data set [4], the cytotoxic concentration (CC50) at 48 h was 27500 nM. The inhibition in [1] turned out to be 96.2%.
For the compound `O=c1c2ccccc2[se]n1Cc1ccncc1`, the values for the inhibition at 0.5 h, 20 µM in data set [9] and in [10] were 42% and 87%, respectively. Besides, the half-maximal inhibitory concentration (IC50) in data set [2] is 287 nM; in data set [11], over 20000 nM. Also, the EC50 in data set [3] is over 20000 nM. In addition, the inhibition entry in [5] is “Active”. Moreover, the CC50 at 48 h in data set [4] worked out at 55700 nM. Besides, in data set [1], the inhibition came out at 97.4%. Further, the inhibition result in [7] is “inactive”.
As for `O=C(OCc1ccccc1)N1CCC(n2[se]c3ccccc3c2=O)CC1`, the inhibition in [1] was determined as 71.2%.
On to `O=c1c2ccc([N+](=O)[O-])cc2[se]n1-c1ccccc1`, for which, in data set [1], the inhibition was found to be 49.2%.

For orientation: inhibition means the drop in the measured response relative to a control, in per cent. As a reminder, the IC50 is the concentration needed to halve the response being measured. The term EC50 denotes the concentration that produces a half-maximal response. In general, CC50 refers to the concentration at which the toxic effect on the cells reaches its halfway point.
